How the values were obtained:
[1] = test system: Lewis Lung carcinoma cells; assay: Chick embryo CAM tumor growth, Lewis Lung carcinoma; format: in vivo, chick embryos; details: PABA 100 ug/ml, TAXOL 0.01 μM, 7 days
Method: Lewis Lung carcinoma cells and murine 4T1 breast carcinoma cells (available from American Type Culture Collection, Rockville, MD-No. CRL-2539), were cultured in growth medium in the presence or absence of PABA (100 ug/ml) for at least 7 days. The cells were harvested, washed and resuspended in sterile PBS, followed by implantation on the chorioallantoic membranes (CAM) of 10-day old chick embryos. Embryos were allowed to incubate for 24 hours. The embryos were then treated with either a single fraction dose of ionizing radiation (5.0 Gy) or TAXOL® (0.01 μM) and allowed to incubate for 7 days.

4T1 breast cancer cells = assay: Cell cycle analysis by flow cytometry, 4T1; format: cell-based; details: PABA 100 μg/ml 2 weeks, untreated 10%
Method: (§1) G361 melanoma cells and 4T1 breast cancer cells were cultured in the presence or absence of PABA (100 μg/ml) for 2 weeks. The tumor cells were synchronized by serum starvation and cultured for 2 hours in 10% serum-containing medium. The cells were harvested, washed, fixed and stained with propidium iodide. Cell cycle analysis was performed by flow cytometry. The relative levels of untreated G361 cells (12%) and 4T1 cells (10%) in S-phase were low compared. FIG. 9. In contrast, 72% of PABA-treated G361 cells and 40% of PABA-treated 4T1 cells were in S-phase.

c-Myc = assay: Western blot, c-Myc; format: cell-based
Method: (§2) Western blot analysis was performed to confirm the altered expression of CDC25A, c-Myc and BRCA-2 at the protein level. G361 melanoma cells were cultured for 2 weeks in the presence or absence of PABA. The cells were harvested and lysed in 1.0% Triton-X-100 lysis buffer. Equal amounts of total cell lysates (50 μg/lane) were separated by 10% SDS PAGE and the proteins were transferred to nitrocellulose membranes. The membranes were probed with monoclonal antibodies P4C10 (anti-β1 integrin), 3303 (anti-BRCA-2) and Ab-3 (anti-CDC25A) or secondary antibody only. […] BRCA-2 expression was decreased in cells treated with PABA compared to cells grown in the absence of PABA. […] In similar studies, c-Myc expression in 4T1 breast carcinoma cells and G361 melanoma cells was examined by Western blot. The nitrocellulose membranes were probed with anti-c-Myc monoclonal antibody 9402 (available from Cell Signaling Technology, Beverly, Mass.) and anti-actin monoclonal antibody. […] No change in actin levels was observed.

melanogenesis = details: in vitro and in vivo, alone or in combination with chemotherapy or radiation therapy; cited from earlier work
G361 melanoma cells = assay: Cell cycle analysis by flow cytometry, G361; format: cell-based; details: PABA 100 μg/ml 2 weeks, untreated 12%
Method: as §1

P21^CIP1 = assay: Western blot, P21^CIP1; format: cell-based; details: 4T1 breast cancer cells; PABA 100 μg/ml 7 days
Method: P21^CIP1 is a cell cycle dependent kinase inhibitor, which has a role in regulating the sensitivity of breast cancer cells to chemotherapeutic agents such as TAXOL®. 4T1 breast cancer cells were incubated in the presence or absence of PABA (100 μg/ml) for 7 days. The cells were washed and cell lysates were prepared. Levels of P21^CIP1 were analyzed by Western blot. Equal amounts (50 μg/lane) were separated by SDS PAGE and transferred to nitrocellulose membranes. The membranes were probed with anti-P21^CIP1 or anti-actin monoclonal antibodies.

[2] = test system: Lewis Lung carcinoma cells; details: cited from earlier work
[3] = test system: H460 non-small cell lung cancer cells; assay: Reactive oxygen species by FACS; format: cell-based; details: PABA 100 μg/ml
Method: H460 non-small cell lung cancer cells were grown in the presence or absence of PABA (100 μg/ml) in RPMI-1640 media containing 10% fetal calves serum, 1% penn/strep and 1% NaPyruvate. After 24 hours, a portion of the cells were exposed to 0.01 bortezomib (10 nM) for an additional 24 hours. […] The cells were monitored for ROS by the addition of dihydrothidine at a concentration of 5 μM for 15 minutes followed by fixation in ethanol and analysis by FACS. […] FIG. 10. Cells treated with PABA and bortezomib had about a 2 fold increase in ROS compared to cells treated with bortezomib alone.

[4] = test system: 4T1 breast carcinoma cells; assay: Subcutaneous 4T1 breast tumor growth and lung metastasis in mice; format: in vivo
Method: Sub-confluent cultures of 4T1 breast carcinoma cells were harvested, washed and resuspended in PBS. Female nude mice or Balb/c strain mice were injected subcutaneously with approximately 1×10^6 tumor cells. Subcutaneous tumors were allowed to grow for 7 days, at which time the mice were treated daily by intraperitoneal injections of the following: • PABA alone (500 μg/mouse) • Radiation alone (9.0 Gy) • PABA and radiation • Docetaxel (8.0 mg/kg 1 time/week, intraperitoneal administration) • PABA and docetaxel (daily PABA and intraperitoneal administration of 8.0 mg/kg docetaxel 1 time/week) Untreated mice were used as a control. Tumor growth was gauged by weekly caliper measurements. After 28 days, the mice were sacrificed and tumor volumes were calculated by standard methods using the formula […], where V=volume, L=length and W=width.

[5] = test system: cell cycle control genes in B16F10 and G361 melanoma cells; assay: AFFYMATRIX cDNA array analysis of tumor cells; format: cell-based, human and mouse; details: PABA 100 μg/ml
Method: (§3) An AFFYMATRIX™ based cDNA array analysis was performed on tumor cells cultured in the presence or absence of PABA (100 μg/ml). A number of genes within the tumor cells were differentially expressed following PABA treatment. Experiments were conducted on genes that were consistently altered in both human and mouse tumor cells. […] To confirm these findings, the expression of CDC25A was analyzed. 4T1 breast carcinoma cells and B16F10 melanoma cells were incubated in the presence or absence of PABA. After 7 days, the RNA was isolated. The relative levels of CDC25A mRNA were examined by RT-PCR or real time PCR. FIG. 8.

[6] = cited from earlier work
CDC25A mRNA = CDC25A mRNA by RT-PCR; format: cell-based; details: 7 days
Method: as §3

β1 integrin subunit = assay: Western blot, β1 integrin; format: cell-based; details: G361 melanoma cells; 2 weeks with PABA
Method: as §2

BRCA-2 = assay: Western blot, BRCA-2; format: cell-based; details: G361 melanoma cells; 2 weeks with PABA
Method: as §2

CDC25A = assay: Western blot, CDC25A; format: cell-based; details: G361 melanoma cells; 2 weeks with PABA
Method: as §2

[7] = test system: murine 4T1 breast carcinoma cells; assay: Chick embryo CAM tumor growth, 4T1 breast carcinoma; format: in vivo, chick embryos; details: 4T1 on CAM; PABA 100 ug/ml; 7 days
Method: Lewis Lung carcinoma cells and murine 4T1 breast carcinoma cells (available from American Type Culture Collection, Rockville, MD-No. CRL-2539), were cultured in growth medium in the presence or absence of PABA (100 ug/ml) for at least 7 days. The cells were harvested, washed and resuspended in sterile PBS, followed by implantation on the chorioallantoic membranes (CAM) of 10-day old chick embryos. Embryos were allowed to incubate for 24 hours. The embryos were then treated with either a single fraction dose of ionizing radiation (5.0 Gy) or TAXOL® (0.01 μM) and allowed to incubate for 7 days. Tumor growth was assessed by measuring the wet weights of resected tumors (5-10 tumors per condition).

actin = assay: Western blot, actin; format: cell-based
Method: as §2
P21^CIP1 is a cell cycle dependent kinase inhibitor, which has a role in regulating the sensitivity of breast cancer cells to chemotherapeutic agents such as TAXOL®. 4T1 breast cancer cells were incubated in the presence or absence of PABA (100 μg/ml) for 7 days. The cells were washed and cell lysates were prepared. Levels of P21^CIP1 were analyzed by Western blot. […]

[8] = test system: hormone receptor-positive tumors; details: 3-year; cited from earlier work
[9] = test system: stage II or stage III breast cancer; details: cited from earlier work
[10] = test system: SKOV-3 ovarian carcinoma cells; assay: MTT proliferation assay, SKOV-3 cells; format: cell-based; details: topotecan 0.1 uM alone, compared to untreated controls
Method: Similarly, SKOV-3 ovarian carcinoma cells were incubated with or without PABA at 0.1 mg/ml in DMEM for 3 days and subsequently exposed to topotecan at concentrations of 0, 0.1, 0.5 and 2.0 μM, and ^90Y-huBrE-3 at concentrations of 0, 1.0, 2.0, and 4.0 μCi, and evaluated using an MTT assay after 72 hrs.

[11] = test system: reactive oxygen species (ROS); details: 100 nM, 24 hours exposure; cited from earlier work
[12] = test system: MCF7 breast carcinoma cells; assay: MTT proliferation assay, MCF7 cells; format: cell-based; details: Homo sapiens, PABA 0.1 mg/ml 3 days, 5-FU 1 μM, ^90Y-huBrE-3 1 μCi, MTT after 72 hours
Method: Pharmaceutical grade ^90Y was buffered in 0.05M acetate and incubated with MX-DTPA-huBrE-3 and 5 mM EDTA for 1 hr, followed by purification on a Bio-Gel P6 column eluted with 1% human serum albumin to generate radiolabeled ^90Y-huBrE-3 antibody. MCF7 breast carcinoma cells were incubated with and without PABA (0.1 mg/ml) in DMEM media for 3 days, and then exposed to 5-fluorouracil (5-FU) in concentrations of 0, 0.05, 0.1, 1.0 and 5.0 μM, and concentrations of ^90Y-huBrE-3 in concentrations of 0, 1.0, 2.0, and 4 μCi. Effects on proliferation were monitored after 72 hours using a commercially available MTT assay.

MCF-7 xenograft = details: subtherapeutic doses; cited from earlier work

## Nc1ccc(C(=O)O)cc1 [PABA, p-amino-benzoic acid]
[1]
  effect on growth of Lewis Lung tumors: neither PABA nor TAXOL® alone inhibited the growth
4T1 breast cancer cells
  cells in S-phase: 40%
c-Myc; 4T1 cells
  c-Myc protein expression: significant up-regulation
c-Myc; G361 cells
  c-Myc protein expression: significant up-regulation
melanogenesis
  melanogenesis: inhibits melanogenesis
G361 melanoma cells
  cells in S-phase: 72%
P21^CIP1
  levels of P21^CIP1: significantly reduced
[2]
  in vitro proliferation of Lewis Lung carcinoma cells: inhibit the in vitro proliferation
[3]
  increase in ROS compared to untreated cells: 3 fold
[4]; PABA 500 μg/mouse daily i.p., radiation 9.0 Gy, 28 days (FIG. 4)
  reduction of mean tumor volume compared to untreated control mice: about 26%
[5]
  BRCA-2 gene expression: down-regulated
  H2A histone gene expression: down-regulated
  H2B histone gene expression: down-regulated
  P21^CIP1 gene expression: down-regulated
[6]; after ingestion
  time of peak plasma concentration after ingestion: about ¾
[6]; in vivo
  mean half life: about 0.5 hours
CDC25A mRNA; 4T1 breast carcinoma cells
  increase in levels of CDC25A mRNA compared to untreated controls: about 2 fold
CDC25A mRNA; B16F10 melanoma cells
  increase in levels of CDC25A mRNA compared to untreated controls: about 2 fold
β1 integrin subunit
  β1 integrin subunit expression: no change
BRCA-2
  BRCA-2 protein expression: decreased
CDC25A
  CDC25A protein expression: markedly increased
[7]
  effect on 4T1 breast carcinoma tumor growth: Neither PABA alone nor a single fraction dose of ionizing radiation had any effect
actin; 4T1 and G361 cells, c-Myc blots
  actin levels: No change
actin; 4T1 breast cancer cells, PABA 100 μg/ml 7 days
  level of actin: Little change

## CC/C(=C(\c1ccccc1)c1ccc(OCCN(C)C)cc1)c1ccccc1 [tamoxifen]
[8]
  disease-free survival: 67%
  overall survival: 85%
[9]; at 10 years
  overall survival: 36%
[9]; median follow-up of 10 years, tamoxifen 30 mg daily for 1 year
  local-regional recurrence: 35%

## CC[C@@]1(O)C(=O)OCc2c1cc1n(c2=O)Cc2cc3c(CN(C)C)c(O)ccc3nc2-1 [topotecan]
[10]
  inhibition of proliferation: minimally

## CC(C)C[C@H](NC(=O)[C@H](Cc1ccccc1)NC(=O)c1cnccn1)B(O)O [bortezomib]
[11]
  induction of reactive oxygen species (ROS): actively induce reactive oxygen species (ROS)

## O=c1[nH]cc(F)c(=O)[nH]1 [5-FU, 5-fluorouracil]
[12]
  inhibition at 1 µM: ~25%

## CC(=O)O[C@H]1C(=O)[C@@]2(C)[C@H]([C@H](OC(=O)c3ccccc3)[C@]3(O)C[C@H](OC(=O)[C@H](O)[C@@H](NC(=O)c4ccccc4)c4ccccc4)C(C)=C1C3(C)C)[C@]1(OC(C)=O)CO[C@@H]1C[C@@H]2O [TAXOL®, paclitaxel, reference compound]
[1]
  effect on growth of Lewis Lung tumors: neither PABA nor TAXOL® alone inhibited the growth
MCF-7 xenograft
  responses with either treatment modality alone: no responses

## CC(=O)O[C@@]12CO[C@@H]1C[C@H](O)[C@@]1(C)C(=O)[C@H](O)C3=C(C)[C@@H](OC(=O)[C@H](O)[C@@H](NC(=O)OC(C)(C)C)c4ccccc4)C[C@@](O)([C@@H](OC(=O)c4ccccc4)[C@H]21)C3(C)C [docetaxel, reference compound]
[4]; docetaxel 8.0 mg/kg 1 time/week i.p., PABA 500 μg/mouse daily, 28 days (FIG. 3)
  reduction of tumor growth: ~45%

— patent publication US7705049B2, “Methods for treating non-melanoma cancers with PABA” (New York University, priority 2004, dated 2010)
